Results on 21 molecules are retold here after patent US7935700B2, “Morpholine compound” (Mitsubishi Tanabe Pharma Corporation, priority 2004, dated 2011).

Structures are written as SMILES. Structures can show the parent of a compound that is named as a salt. Where two headings read alike, the source gives them in different places.

One test has as its target T1, CCR3 (Homo sapiens, UniProt P51677).
T1 construct: Eosinophils separated from peripheral blood of healthy subject; endogenous in cells; host or cells: eosinophils separated from peripheral blood of healthy subject
T1 sequence (P51677 1-355): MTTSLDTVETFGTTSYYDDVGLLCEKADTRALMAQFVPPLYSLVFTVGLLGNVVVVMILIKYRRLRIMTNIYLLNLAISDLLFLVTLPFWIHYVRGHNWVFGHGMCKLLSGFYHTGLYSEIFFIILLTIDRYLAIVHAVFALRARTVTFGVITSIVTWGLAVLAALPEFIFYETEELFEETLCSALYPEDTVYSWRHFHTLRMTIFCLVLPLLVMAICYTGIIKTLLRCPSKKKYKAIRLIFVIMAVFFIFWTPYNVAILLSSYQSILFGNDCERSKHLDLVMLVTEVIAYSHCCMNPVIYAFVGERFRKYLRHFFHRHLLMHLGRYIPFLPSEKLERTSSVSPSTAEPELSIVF
The test is described as follows: Effect on intracellular calcium concentration in eosinophils upon CCL11 stimulation. The test is classed as cell-based. The following applies: peripheral blood eosinophils of healthy subject, agonist CCL11 1.0 nmol/L, compound 3 min before stimulation, Fura-2 AM; read-out: IC50 (50% suppression of the increase in the intracellular calcium concentration). How it is done: Effect on Intracellular Calcium Concentration
The effect of the compound of the present invention on intracellular calcium mobilization in peripheral blood eosinophils of healthy subject upon CCL11 stimulation was examined by the following method.
Eosinophils separated from peripheral blood of healthy subject were suspended in 0.5% bovine serum albumin-containing phosphate buffered saline, and incubated at 37° C. for 45 min in the presence of 5 μmol/L of Fura-2 AM (manufactured by DOJINDO LABORATORIES).
After incubation, the cells were washed 3 times with a measurement buffer (10 mmol/L HEPES, and 0.5% bovine serum albumin-containing hanks' balanced salt solution) to remove Fura-2 AM that was not incorporated into the cells.
Finally, the cells were adjusted to 1×10^6 cells/mL with the measurement buffer and preserved in a dark place until measurement. The intracellular calcium was measured using FDSS3000 manufactured by Hamamatsu Photonics K.K. In other words, the cell suspension (0.1 mL) loaded with Fura-2 AM was placed in a 96 well plate for measurement, the fluorescence intensity to the excitation light at wavelengths 340 nm and 380 nm was measured by FDSS3000, the ratio of the fluorescence intensity to the excitation light at these two wavelengths was determined, based on which the intracellular calcium concentration was calculated. As the agonist, used was CCL11 (1.0 nmol/L), which is a CCR3 selective ligand, and the antagonistic activity was determined as 50% suppression rate (IC50 value) of the increase in the intracellular calcium concentration, when eosinophils were treated with various concentrations of the compound of the present invention at 3 min before agonist stimulation.
On the technique in general: A change in cytosolic calcium serves as a functional read-out for many receptors and channels.

Test [1] relates to mouse ovalbumin (OVA) induced allergic and biphasic ear edema. The test is described as follows: Antigen (OVA) induced allergic and biphasic ear edema model. It counts as in vivo. The following applies: male BALB/c mice, oral once a day from 2 days before induction, 3 or 10 mg/kg tested. How it is done:
3: Effect on Antigen Induced Allergic and Biphasic Ear Edema Model
The in vivo effect of the compound of the present invention was examined using a mouse ovalbumin (OVA) induced allergic and biphasic ear edema model. The model was prepared according to the method of Sugawara et al. (Allergy & Clinical Immunology International, Supplement No. 2, P 785, 2000). In other words, male BALB/c mice were immunized by intraperitoneal injection with 10 μg of OVA and 1 mg of aluminum hydroxide gel (Alum). At 14 days after immunization, OVA (5 μg) were subcutaneously injected to the both ears of the mouse, whereby ear edema was induced. The thickness of the ears was measured using a dial sickness gauge immediately before subcutaneous injection and 1 and 24 hrs after subcutaneous injection of OVA. The compound of the present invention was suspended in a vehicle, 0.5% hydroxypropylmethyl cellulose solution, and orally administered at 3 mg/kg or 10 mg/kg once a day using an orally gavage needle from 2 days before ear edema induction.

The mark [2] stands for this setting: ear thickness 1 hr after OVA, read-out: Dose that showed a significant suppressive action vs vehicle, Immediate phase.
[3] abbreviates: ear thickness 24 hrs after OVA, read-out: Dose that showed a significant suppressive action vs vehicle, Late phase.

For `NC(=O)CNC(=O)c1ccc(SCC(=O)NC[C@H]2CN(Cc3ccc(Cl)c(Cl)c3)CCO2)cc1` [Example 40, (2S)-{4-[(2-amino-2-oxoethyl)aminocarbonyl]phenylthio}-N-{[4-(3,4-dichlorobenzyl)morpholin-2-yl]methyl}acetamide], on CCR3, the IC50 was 2 nM. Moreover, the minimal effective dose in test [1] (setting [2]) and in test [1] (setting [3]) was 3 mg/kg each time.
As to `O=C(O)CCNC(=O)c1csc(SCC(=O)NC[C@H]2CN(Cc3ccc(Cl)c(Cl)c3)CCO2)n1` [Example 46, (2S)-{4-[(2-carboxyethyl)aminocarbonyl]thiazol-2-ylthio}-N-{[4-(3,4-dichlorobenzyl)morpholin-2-yl]methyl}acetamide hydrochloride], on CCR3, the IC50 turned out to be 3.1 nM. Besides, the minimal effective dose in test [1] (setting [2]) and in test [1] (setting [3]) was 10 mg/kg throughout.
In the case of `CC(=O)Nc1nnc(SCC(=O)NC[C@H]2CN(Cc3ccc(Cl)c(Cl)c3)CCO2)s1` [Example 53, (2S)-(5-acetamino-1,3,4-thiadiazol-2-ylthio)-N-{[4-(3,4-dichlorobenzyl)morpholin-2-yl]methyl}acetamide], on CCR3, the IC50 was found to be 5.3 nM. The minimal effective dose in test [1] (setting [2]) and in test [1] (setting [3]) was 3 mg/kg throughout.
As to `NC(=O)c1csc(SCCCC(=O)NC[C@H]2CN(Cc3ccc(Cl)c(Cl)c3)CCO2)n1` [Example 55, (2S)-4-(4-carbamoylthiazol-2-ylthio)-N-{[4-(3,4-dichlorobenzyl)morpholin-2-yl]methyl}butyramide hydrochloride], the IC50 on CCR3 was found to be 1.1 nM.
On to `O=C(CSc1nc(-c2nnn[nH]2)cs1)NC[C@H]1CN(Cc2ccc(Cl)c(Cl)c2)CCO1` [Example 59, (2S)-N-{[4-(3,4-dichlorobenzyl)morpholin-2-yl]methyl}-[4-(1H-tetrazol-5-yl)thiazol-2-ylthio]acetamide], for which, on CCR3, the IC50 amounted to 2.1 nM.
`O=C(CSc1nc2cccnc2s1)NC[C@H]1CN(Cc2ccc(Cl)c(Cl)c2)CCO1` [Example 64, (2S)-N-{[4-(3,4-dichlorobenzyl)morpholin-2-yl]methyl}-([1,3]thiazolo[5,4-b]pyridin-2-ylthio)acetamide]: the IC50 on CCR3 amounted to 0.3 nM. Further, the minimal effective dose in test [1] (setting [2]) turned out to be 10 mg/kg; in test [1] (setting [3]), 3 mg/kg.
Take `NC(=O)/C=C/c1csc(SCC(=O)NC[C@H]2CN(Cc3ccc(Cl)c(Cl)c3)CCO2)n1` [Example 71, (2S)-(E)-[4-(2-carbamoylethen-1-yl)thiazol-2-ylthio]-N-{[4-(3,4-dichlorobenzyl)morpholin-2-yl]methyl}acetamide]: at CCR3, the IC50 amounted to 0.5 nM.
Same read-out and setting: as for `NC(=O)Cc1csc(SCC(=O)NC[C@H]2CN(Cc3ccc(F)c(F)c3)CCO2)n1` [Example 79, (2S)-[4-(carbamoylmethyl)thiazol-2-ylthio]-N-{[4-(3,4-difluorobenzyl)morpholin-2-yl]methyl}acetamide], the figure is 0.9 nM; as for `NC(=O)Cc1csc(SCC(=O)NC[C@H]2CN(Cc3ccc(F)cc3)CCO2)n1` [Example 107, (2S)-[4-(carbamoylmethyl)thiazol-2-ylthio]-N-{[4-(4-fluorobenzyl)morpholin-2-yl]methyl}acetamide], 2.5 nM; as for `Cc1sc(SCC(=O)NC[C@H]2CN(Cc3ccc(Cl)c(Cl)c3)CCO2)nc1C(=O)O` [Example 109, (2S)-(4-carboxy-5-methylthiazol-2-ylthio)-N-{[4-(3,4-dichlorobenzyl)morpholin-2-yl]methyl}acetamide], 22.3 nM.
In the case of `Cc1sc(SCC(=O)NC[C@H]2CN(Cc3ccc(Cl)c(Cl)c3)CCO2)nc1C(N)=O` [Example 110, (2S)-(4-carbamoyl-5-methylthiazol-2-ylthio)-N-{[4-(3,4-dichlorobenzyl)morpholin-2-yl]methyl}acetamide], the IC50 at CCR3 turned out to be 1.5 nM.
For `NC(=O)c1csc(SCC(=O)NC[C@H]2CN(Cc3ccc(F)c(Cl)c3)CCO2)n1` [Example 112, (2S)-(4-carbamoylthiazol-2-ylthio)-N-{[4-(3-chloro-4-fluorobenzyl)morpholin-2-yl]methyl}acetamide], the IC50 on CCR3 turned out to be 0.9 nM.
With `NC(=O)CNC(=O)c1csc(SCC(=O)NC[C@H]2CN(Cc3ccc(F)c(F)c3)CCO2)n1` [Example 115, (2S)-[4-(2-amino-2-oxoethyl)aminocarbonylthiazol-2-ylthio]-N-{[4-(3,4-difluorobenzyl)morpholin-2-yl]methyl}acetamide], the IC50 at CCR3 came out at 2.6 nM.
`Nc1nnc(SCC(=O)NC[C@H]2CN(Cc3cccc(Cl)c3)CCO2)s1` [Example 123, (2S)-(5-amino-1,3,4-thiadiazol-2-ylthio)-N-{[4-(3-chlorobenzyl)morpholin-2-yl]methyl}acetamide]: the IC50 at CCR3 turned out to be 2.6 nM. For the same molecule, the minimal effective dose in test [1] (setting [2]) and in test [1] (setting [3]) was 10 mg/kg in each case.
As to `Nc1nnc(SCC(=O)NC[C@H]2CN(Cc3ccc(F)c(F)c3)CCO2)s1` [Example 125, (2S)-(5-amino-1,3,4-thiadiazol-2-ylthio)-N-{[4-(3,4-difluorobenzyl)morpholin-2-yl]methyl}acetamide], the IC50 on CCR3 is 3.6 nM. Moreover, the figures for the minimal effective dose in test [1] (setting [2]) and in test [1] (setting [3]) were 10 mg/kg and 3 mg/kg, respectively.
As for `O=C(CSc1ncccn1)NC[C@H]1CN(Cc2ccc(Cl)c(Cl)c2)CCO1` [Example 146, (2S)-N-{[4-(3,4-dichlorobenzyl)morpholin-2-yl]methyl}-(pyrimidin-2-ylthio)acetamide], the IC50 on CCR3 was 2.5 nM. The minimal effective dose in test [1] (setting [2]) and in test [1] (setting [3]) was 3 mg/kg in each case.
Regarding `CC(=O)c1cc2cc(SCC(=O)NC[C@H]3CN(Cc4ccc(Cl)c(Cl)c4)CCO3)ccc2oc1=O` [Example 174, (2S)-(3-acetyl-2-oxo-2H-chromen-6-ylthio)-N-{[4-(3,4-dichlorobenzyl)morpholin-2-yl]methyl}acetamide], the IC50 on CCR3 came out at 16.2 nM.
Turning to `O=C(CSc1ccc(=O)[nH]n1)NC[C@H]1CN(Cc2ccc(F)c(F)c2)CCO1` [Example 198, (2S)-N-{[4-(3,4-difluorobenzyl)morpholin-2-yl]methyl}-(6-oxo-1,6-dihydropyridazin-3-ylthio)acetamide], the IC50 at CCR3 was 3.9 nM. Moreover, the minimal effective dose in test [1] (setting [2]) and in test [1] (setting [3]) was 10 mg/kg in each case.
Turning to `NC(=O)c1cncc(SCC(=O)NC[C@H]2CN(Cc3ccc(Cl)c(Cl)c3)CCO2)c1` [Example 207, (2S)-(3-carbamoylpyridin-5-ylthio)-N-{[4-(3,4-dichlorobenzyl)morpholin-2-yl]methyl}acetamide], the IC50 at CCR3 was determined as 2.4 nM.
Turning to `NC(=O)Cc1cncc(SCC(=O)NC[C@H]2CN(Cc3ccc(Cl)c(Cl)c3)CCO2)n1` [Example 223, (2S)-[6-(carbamoylmethyl)pyrazin-2-ylthio]-N-{[4-(3,4-dichlorobenzyl)morpholin-2-yl]methyl}acetamide], at CCR3, the IC50 came out at 0.1 nM.
As to `O=C(CCCS(=O)(=O)C1CCCC1)NC[C@H]1CN(Cc2ccc(F)c(Cl)c2)CCO1` [Example 232, (2S)-4-(cyclopentanesulfonyl)-N-{[4-(3-chloro-4-fluorobenzyl)morpholin-2-yl]methyl}butyramide], on CCR3, the IC50 is 38.5 nM.
